Results published in ChEMBL document CHEMBL3611969, “The effect of complexation of 3-formylrifamycin SV macrocyclic ether derivatives with metal cations and small nitrogen-containing organic molecules on antibacterial activity against S. aureus and S. epidermidis” (Bioorg Med Chem Lett, 2015).
Converted amounts (≈) assume the structure as drawn.

Assays:
Staphylococcus aureus [1] = assay: Antibacterial activity against Staphylococcus aureus ATCC 4163 after 18 hrs by serial microdilution method; type: functional; conditions: ATCC 4163, 18 h
Staphylococcus aureus [2] = assay: Antibacterial activity against Staphylococcus aureus ATCC 6538 after 18 hrs by serial microdilution method; type: functional; conditions: ATCC 6538, 18 h
[3] = test system: Staphylococcus epidermidis; assay: Antibacterial activity against Staphylococcus epidermidis ATCC 49134 after 18 hrs by serial microdilution method; type: functional; conditions: ATCC 49134, 18 h
[4] = test system: Staphylococcus epidermidis; assay: Antibacterial activity against Staphylococcus epidermidis ATCC 12228 after 18 hrs by serial microdilution method; type: functional; conditions: ATCC 12228, 18 h
Staphylococcus aureus [5] = assay: Antibacterial activity against Staphylococcus aureus ATCC 25923 after 18 hrs by serial microdilution method; type: functional; conditions: ATCC 25923, 18 h
[6] = Solubility of the compound in water at pH 7; type: physicochemical
[7] = Octanol-water partition coefficient, log P of the compound by UV-vis method; type: physicochemical
[8] = test system: Staphylococcus epidermidis; assay: Antibacterial activity against Staphylococcus epidermidis ATCC 49134 after 18 hrs by serial microdilution method in presence of 4-fluorobenzylamine; type: functional; conditions: ATCC 49134, 18 h
Staphylococcus aureus [9] = assay: Antibacterial activity against Staphylococcus aureus ATCC 4163 after 18 hrs by serial microdilution method in presence of 2-chlorobenzylamine; type: functional; conditions: ATCC 4163, 18 h
Staphylococcus aureus [10] = assay: Antibacterial activity against Staphylococcus aureus ATCC 25923 after 18 hrs by serial microdilution method in presence of 4-fluorobenzylamine; type: functional; conditions: ATCC 25923, 18 h
Staphylococcus aureus [11] = assay: Antibacterial activity against Staphylococcus aureus ATCC 25923 after 18 hrs by serial microdilution method in presence of 2-chlorobenzylamine; type: functional; conditions: ATCC 25923, 18 h
Staphylococcus aureus [12] = assay: Antibacterial activity against Staphylococcus aureus ATCC 4163 after 18 hrs by serial microdilution method in presence of 4-fluorobenzylamine; type: functional; conditions: ATCC 4163, 18 h
Staphylococcus aureus [13] = assay: Antibacterial activity against Staphylococcus aureus ATCC 4163 after 18 hrs by serial microdilution method in presence of isoniazid; type: functional; conditions: ATCC 4163, 18 h
[14] = test system: Staphylococcus epidermidis; assay: Antibacterial activity against Staphylococcus epidermidis ATCC 12228 after 18 hrs by serial microdilution method in presence of isoniazid; type: functional; conditions: ATCC 12228, 18 h
[15] = test system: Staphylococcus epidermidis; assay: Antibacterial activity against Staphylococcus epidermidis ATCC 49134 after 18 hrs by serial microdilution method in presence of isoniazid; type: functional; conditions: ATCC 49134, 18 h
[16] = test system: Staphylococcus epidermidis; assay: Antibacterial activity against Staphylococcus epidermidis ATCC 12228 after 18 hrs by serial microdilution method in presence of histamine; type: functional; conditions: ATCC 12228, 18 h
Staphylococcus aureus [17] = assay: Antibacterial activity against Staphylococcus aureus ATCC 6538 after 18 hrs by serial microdilution method in presence of isoniazid; type: functional; conditions: ATCC 6538, 18 h
[18] = test system: Staphylococcus epidermidis; assay: Antibacterial activity against Staphylococcus epidermidis ATCC 49134 after 18 hrs by serial microdilution method in presence of 2-chlorobenzylamine; type: functional; conditions: ATCC 49134, 18 h
Staphylococcus aureus [19] = assay: Antibacterial activity against Staphylococcus aureus ATCC 6538 after 18 hrs by serial microdilution method in presence of 4-fluorobenzylamine; type: functional; conditions: ATCC 6538, 18 h
[20] = test system: Staphylococcus epidermidis; assay: Antibacterial activity against Staphylococcus epidermidis ATCC 12228 after 18 hrs by serial microdilution method in presence of 2-chlorobenzylamine; type: functional; conditions: ATCC 12228, 18 h
[21] = test system: Staphylococcus epidermidis; assay: Antibacterial activity against Staphylococcus epidermidis ATCC 12228 after 18 hrs by serial microdilution method in presence of 4-fluorobenzylamine; type: functional; conditions: ATCC 12228, 18 h
[22] = test system: Staphylococcus epidermidis; assay: Antibacterial activity against Staphylococcus epidermidis ATCC 49134 after 18 hrs by serial microdilution method in presence of histamine; type: functional; conditions: ATCC 49134, 18 h
Staphylococcus aureus [23] = assay: Antibacterial activity against Staphylococcus aureus ATCC 25923 after 18 hrs by serial microdilution method in presence of histamine; type: functional; conditions: ATCC 25923, 18 h
Staphylococcus aureus [24] = assay: Antibacterial activity against Staphylococcus aureus ATCC 6538 after 18 hrs by serial microdilution method in presence of 2-chlorobenzylamine; type: functional; conditions: ATCC 6538, 18 h
Staphylococcus aureus [25] = assay: Antibacterial activity against Staphylococcus aureus ATCC 4163 after 18 hrs by serial microdilution method in presence of histamine; type: functional; conditions: ATCC 4163, 18 h
Staphylococcus aureus [26] = assay: Antibacterial activity against Staphylococcus aureus ATCC 6538 after 18 hrs by serial microdilution method in presence of histamine; type: functional; conditions: ATCC 6538, 18 h
Staphylococcus aureus [27] = assay: Antibacterial activity against Staphylococcus aureus ATCC 25923 after 18 hrs by serial microdilution method in presence of isoniazid; type: functional; conditions: ATCC 25923, 18 h

Compound	MIC (Staphylococcus aureus [1])	MIC (Staphylococcus aureus [2])	MIC [3]	MIC [4]	MIC (Staphylococcus aureus [5])	solubility [6]	logP [7]	also measured
NCc1ccc(F)cc1	> 4 µg/mL	> 4 µg/mL	> 4 µg/mL	> 4 µg/mL	> 4 µg/mL			
NCc1ccccc1Cl	> 4 µg/mL	> 4 µg/mL	> 4 µg/mL	> 4 µg/mL	> 4 µg/mL			
CO[C@H]1/C=C/O[C@@]2(C)Oc3c(C)c(O)c4c(O)c(c(C=O)c(O)c4c3C2=O)NC(=O)/C(C)=C\C=C\[C@H](C)[C@H](O)[C@@H](C)[C@@H](O)[C@@H](C)[C@H](OC(C)=O)[C@@H]1C	0.5 µg/mL (≈ 0.689 µM)	0.5 µg/mL (≈ 0.689 µM)	0.125 µg/mL (≈ 0.172 µM)	0.125 µg/mL (≈ 0.172 µM)	0.5 µg/mL (≈ 0.689 µM)			
CO[C@H]1/C=C/O[C@@]2(C)Oc3c(C)c(O)c4c(O)c(c(CNC5CCOCC5)c(O)c4c3C2=O)NC(=O)/C(C)=C\C=C\[C@H](C)[C@H](O)[C@@H](C)[C@@H](O)[C@@H](C)[C@H](OC(C)=O)[C@@H]1C	0.5 µg/mL (≈ 0.617 µM)	0.5 µg/mL (≈ 0.617 µM)	0.25 µg/mL (≈ 0.308 µM)	0.25 µg/mL (≈ 0.308 µM)	0.5 µg/mL (≈ 0.617 µM)	500 µg/mL (≈ 617 µM)	2.05	
CO[C@H]1/C=C/O[C@@]2(C)Oc3c(C)c(O)c4c(O)c(c(CNCC5CCOCC5)c(O)c4c3C2=O)NC(=O)/C(C)=C\C=C\[C@H](C)[C@H](O)[C@@H](C)[C@@H](O)[C@@H](C)[C@H](OC(C)=O)[C@@H]1C	0.5 µg/mL (≈ 0.606 µM)	0.5 µg/mL (≈ 0.606 µM)	0.25 µg/mL (≈ 0.303 µM)	0.25 µg/mL (≈ 0.303 µM)	0.5 µg/mL (≈ 0.606 µM)	250 µg/mL (≈ 303 µM)	2.37	
CO[C@H]1/C=C/O[C@@]2(C)Oc3c(C)c(O)c4c(O)c(c(CN5CCOCCOCCOCCOCC5)c(O)c4c3C2=O)NC(=O)/C(C)=C\C=C\[C@H](C)[C@H](O)[C@@H](C)[C@@H](O)[C@@H](C)[C@H](OC(C)=O)[C@@H]1C	4 µg/mL (≈ 4.31 µM)	4 µg/mL (≈ 4.31 µM)	> 4 µg/mL	> 4 µg/mL	> 4 µg/mL	1600 µg/mL (≈ 1720 µM)	-0.92	
CO[C@H]1/C=C/O[C@@]2(C)Oc3c(C)c(O)c4c(O)c(c(CN5CCOCCOCCOCCOCCOCC5)c(O)c4c3C2=O)NC(=O)/C(C)=C\C=C\[C@H](C)[C@H](O)[C@@H](C)[C@@H](O)[C@@H](C)[C@H](OC(C)=O)[C@@H]1C	4 µg/mL (≈ 4.11 µM)	4 µg/mL (≈ 4.11 µM)	2 µg/mL (≈ 2.06 µM)	2 µg/mL (≈ 2.06 µM)	> 4 µg/mL	1200 µg/mL (≈ 1230 µM)	-0.54	
CO[C@H]1/C=C/O[C@@]2(C)Oc3c(C)c(O)c4c(O)c(c(CNc5ccc6c(c5)OCCOCCOCCOCCO6)c(O)c4c3C2=O)NC(=O)/C(C)=C\C=C\[C@H](C)[C@H](O)[C@@H](C)[C@@H](O)[C@@H](C)[C@H](OC(C)=O)[C@@H]1C	2 µg/mL (≈ 2.01 µM)	2 µg/mL (≈ 2.01 µM)	0.5 µg/mL (≈ 0.503 µM)	0.5 µg/mL (≈ 0.503 µM)	2 µg/mL (≈ 2.01 µM)		0.2	MIC [8]: 0.25 µg/mL; MIC (Staphylococcus aureus [9]): 0.5 µg/mL; MIC (Staphylococcus aureus [10]): 0.5 µg/mL; MIC (Staphylococcus aureus [11]): 0.5 µg/mL; MIC (Staphylococcus aureus [12]): 0.5 µg/mL; MIC (Staphylococcus aureus [13]): 1 µg/mL; MIC [14]: 0.25 µg/mL; MIC [15]: 0.25 µg/mL; MIC [16]: 1.25 µg/mL; MIC (Staphylococcus aureus [17]): 1 µg/mL; MIC [18]: 0.25 µg/mL; MIC (Staphylococcus aureus [19]): 0.5 µg/mL; MIC [20]: 0.25 µg/mL; MIC [21]: 0.25 µg/mL; MIC [22]: 0.125 µg/mL; MIC (Staphylococcus aureus [23]): 0.125 µg/mL; MIC (Staphylococcus aureus [24]): 0.5 µg/mL; MIC (Staphylococcus aureus [25]): 0.125 µg/mL; MIC (Staphylococcus aureus [26]): 0.125 µg/mL; MIC (Staphylococcus aureus [27]): 1 µg/mL
CO[C@H]1/C=C/O[C@@]2(C)Oc3c(C)c(O)c4c(O)c(c(CNc5ccc6c(c5)OCCOCCOc5ccccc5OCCOCCO6)c(O)c4c3C2=O)NC(=O)/C(C)=C\C=C\[C@H](C)[C@H](O)[C@@H](C)[C@@H](O)[C@@H](C)[C@H](OC(C)=O)[C@@H]1C	2 µg/mL (≈ 1.84 µM)	1 µg/mL (≈ 0.921 µM)	0.5 µg/mL (≈ 0.461 µM)	0.5 µg/mL (≈ 0.461 µM)	2 µg/mL (≈ 1.84 µM)	< 50 µg/mL	1.12	MIC [8]: 0.25 µg/mL; MIC (Staphylococcus aureus [9]): 0.25 µg/mL; MIC (Staphylococcus aureus [10]): 0.25 µg/mL; MIC (Staphylococcus aureus [11]): 0.25 µg/mL; MIC (Staphylococcus aureus [12]): 0.25 µg/mL; MIC (Staphylococcus aureus [13]): 1 µg/mL; MIC [14]: 0.5 µg/mL; MIC [15]: 0.5 µg/mL; MIC [16]: 1.25 µg/mL; MIC (Staphylococcus aureus [17]): 1 µg/mL; MIC [18]: 0.25 µg/mL; MIC (Staphylococcus aureus [19]): 0.25 µg/mL; MIC [20]: 0.25 µg/mL; MIC [21]: 0.25 µg/mL; MIC [22]: 0.125 µg/mL; MIC (Staphylococcus aureus [23]): 0.125 µg/mL; MIC (Staphylococcus aureus [24]): 0.25 µg/mL; MIC (Staphylococcus aureus [25]): 0.125 µg/mL; MIC (Staphylococcus aureus [26]): 0.125 µg/mL; MIC (Staphylococcus aureus [27]): 1 µg/mL
[Li+].[O-][Cl+3]([O-])([O-])[O-]	> 4 µg/mL	> 4 µg/mL	> 4 µg/mL	> 4 µg/mL	> 4 µg/mL			
NCCc1c[nH]cn1 [HISTAMINE]	> 4 µg/mL	> 4 µg/mL	> 4 µg/mL	> 4 µg/mL	> 4 µg/mL			
NNC(=O)c1ccncc1 [ISONIAZID]	> 4 µg/mL	> 4 µg/mL	> 4 µg/mL	> 4 µg/mL	> 4 µg/mL			
CO[C@H]1/C=C/O[C@@]2(C)Oc3c(C)c(O)c4c(O)c(c(/C=N/N5CCN(C)CC5)c(O)c4c3C2=O)NC(=O)/C(C)=C\C=C\[C@H](C)[C@H](O)[C@@H](C)[C@@H](O)[C@@H](C)[C@H](OC(C)=O)[C@@H]1C [RIFAMPIN]	0.016 µg/mL (≈ 0.0194 µM)	0.016 µg/mL (≈ 0.0194 µM)	0.008 µg/mL (≈ 0.00972 µM)	0.008 µg/mL (≈ 0.00972 µM)	0.016 µg/mL (≈ 0.0194 µM)			
[Na+].[O-][Cl+3]([O-])([O-])[O-] [SODIUM PERCHLORATE]	> 4 µg/mL	> 4 µg/mL	> 4 µg/mL	> 4 µg/mL	> 4 µg/mL			
